PMC8963254, “Effects of Lysine N-ζ-Methylation in Ultrashort Tetrabasic Lipopeptides (UTBLPs) on the Potentiation of Rifampicin, Novobiocin, and Niclosamide in Gram-Negative Bacteria” (Antibiotics, 2022)
Like-named read-outs stand apart in the source and are kept apart here.

Assays:
E. coli 94474 = experiment: microbe, parasite or virus in culture; format: cell-based, Escherichia coli; details: 94474, 18 h
In short: (§1)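 Minimum inhibitory concentration came from a CLSI broth dilution assay: 18 h at 37 °C, inoculum 5 × 10^5 CFU/mL final.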

E. coli 94393 = experiment: microbe, parasite or virus in culture; format: cell-based, Escherichia coli; details: 94393, 18 h
In short: as §1

MRSA ATCC 33592 = format: cell-based, Staphylococcus aureus
In short: (§2)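 Values derive from a two-agent checkerboard with an 18 h, 37 °C incubation. FICI cut-offs: ≤0.5 synergy, 0.5–4 additive, >4 antagonism.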

S. aureus ATCC 29213 = format: cell-based, Staphylococcus aureus
In short: as §2

P. aeruginosa PAO1 = format: cell-based, Pseudomonas aeruginosa; details: PAO1, 18 h
In short: as §1

A. baumannii AB027 [1] = experiment: microbe, parasite or virus in culture; format: cell-based, Acinetobacter baumannii; details: AB027, 18 h
In short: as §1

A. baumannii AB92247 = experiment: microbe, parasite or virus in culture; format: cell-based, Acinetobacter baumannii; details: AB92247, 18 h
In short: as §1

E. coli ATCC 25922 [2] = format: cell-based, Escherichia coli; details: for MICUTBLP: UTBLP alone
In short: as §2

E. cloacae 118564 = experiment: microbe, parasite or virus in culture; format: cell-based, Enterobacter cloacae; details: 118564, 18 h
In short: as §1

A. baumannii ATCC 17978 [3] = format: cell-based, Acinetobacter baumannii; details: ATCC 17978, 18 h
In short: as §1

A. baumannii AB027 [4] = format: cell-based, Acinetobacter baumannii; details: for MICUTBLP: UTBLP alone
In short: as §2

A. baumannii ATCC 17978 [5] = format: cell-based, Acinetobacter baumannii; details: for MICUTBLP: UTBLP alone
In short: as §2

A. baumannii 92247 = format: cell-based, Acinetobacter baumannii; details: for MICUTBLP: UTBLP alone
In short: as §2

MSSE 81388 = format: cell-based, Staphylococcus epidermidis
In short: as §2

MRSE 61589 = format: cell-based, Staphylococcus epidermidis
In short: as §2

E. coli ATCC 25922 [6] = format: cell-based, Escherichia coli; details: ATCC 25922, 18 h
In short: as §1

[7] = UTBLP alone, plate with chloramphenicol
[8] = UTBLP in combination with chloramphenicol
[9] = chloramphenicol in combination with the UTBLP
[10] = UTBLP in combination with niclosamide
[11] = UTBLP in combination with novobiocin
[12] = UTBLP in combination with rifampicin
[13] = niclosamide in combination with the UTBLP
[14] = novobiocin in combination with the UTBLP
[15] = rifampicin in combination with the UTBLP

## CCCCCCCC(=O)N[C@@H](CCCCN(C)C)C(=O)NCCCN(CCCNC(=O)[C@H](CCCCN(C)C)NC(=O)CCCCCCC)CC(=O)N[C@@H](CCCCN(C)C)C(N)=O [UTBLP 3]
E. coli 94474
  MIC: > 128 µg/mL
E. coli 94393
  MIC: > 128 µg/mL
MRSA ATCC 33592; UTBLP + chloramphenicol
  Interpretation: Additive (0.5 < x ≤ 4 is additive)
MRSA ATCC 33592; [7]
  MICUTBLP: > 128 µg/mL
MRSA ATCC 33592; [8]
  MICUTBLP [MICcombo]: 0.25 µg/mL
MRSA ATCC 33592; [9]
  MICchloramphenicol [MICcombo]: 64 µg/mL
S. aureus ATCC 29213; [7]
  MICUTBLP: > 128 µg/mL
S. aureus ATCC 29213; [8]
  MICUTBLP [MICcombo]: 0.25 µg/mL
S. aureus ATCC 29213; [9]
  MICchloramphenicol [MICcombo]: 16 µg/mL
P. aeruginosa PAO1
  MIC: >128 µg/mL
A. baumannii AB027 [1]
  MIC: > 128 µg/mL
A. baumannii AB92247
  MIC: > 128 µg/mL
E. coli ATCC 25922 [2]; UTBLP + chloramphenicol
  Interpretation: Additive (0.5 < x ≤ 4 is additive)
E. coli ATCC 25922 [2]; UTBLP + niclosamide
  Interpretation: Synergy (FICI ≤ 0.5 is synergistic)
E. coli ATCC 25922 [2]; UTBLP + novobiocin
  Interpretation: Synergy (FICI ≤ 0.5 is synergistic)
E. coli ATCC 25922 [2]; UTBLP + rifampicin
  Interpretation: Synergy (FICI ≤ 0.5 is synergistic)
E. coli ATCC 25922 [2]; plate with chloramphenicol
  MICUTBLP: > 128 µg/mL
E. coli ATCC 25922 [2]; plate with niclosamide
  MICUTBLP: > 128 µg/mL
E. coli ATCC 25922 [2]; plate with novobiocin
  MICUTBLP: > 128 µg/mL
E. coli ATCC 25922 [2]; plate with rifampicin
  MICUTBLP: > 128 µg/mL
E. coli ATCC 25922 [2]; [8]
  MICUTBLP [MICcombo]: 0.5 µg/mL
E. coli ATCC 25922 [2]; [10]
  MICUTBLP [MICcombo]: 16 µg/mL
E. coli ATCC 25922 [2]; [11]
  MICUTBLP [MICcombo]: 16 µg/mL
E. coli ATCC 25922 [2]; [12]
  MICUTBLP [MICcombo]: 16 µg/mL
E. coli ATCC 25922 [2]; [9]
  MICantibiotic [MICcombo]: 2 µg/mL
E. coli ATCC 25922 [2]; [13]
  MICantibiotic [MICcombo]: 8 µg/mL
E. coli ATCC 25922 [2]; [14]
  MICantibiotic [MICcombo]: 4 µg/mL
E. coli ATCC 25922 [2]; [15]
  MICantibiotic [MICcombo]: 1 µg/mL
E. cloacae 118564
  MIC: > 128 µg/mL
A. baumannii ATCC 17978 [3]
  MIC: >128 µg/mL
A. baumannii AB027 [4]; UTBLP + novobiocin
  Interpretation: Synergy (FICI ≤ 0.5 is synergistic)
A. baumannii AB027 [4]; UTBLP + rifampicin
  Interpretation: Additive (0.5 < x ≤ 4 is additive)
A. baumannii AB027 [4]; plate with novobiocin
  MICUTBLP: > 128 µg/mL
A. baumannii AB027 [4]; plate with rifampicin
  MICUTBLP: > 128 µg/mL
A. baumannii AB027 [4]; [11]
  MICUTBLP [MICcombo]: 16 µg/mL
A. baumannii AB027 [4]; [12]
  MICUTBLP [MICcombo]: 4 µg/mL
A. baumannii AB027 [4]; [14]
  MICantibiotic [MICcombo]: 2 µg/mL
A. baumannii AB027 [4]; [15]
  MICantibiotic [MICcombo]: 0.5 µg/mL
A. baumannii ATCC 17978 [5]; UTBLP + chloramphenicol
  Interpretation: Additive (0.5 < x ≤ 4 is additive)
A. baumannii ATCC 17978 [5]; UTBLP + niclosamide
  Interpretation: Additive (0.5 < x ≤ 4 is additive)
A. baumannii ATCC 17978 [5]; UTBLP + novobiocin
  Interpretation: Synergy (FICI ≤ 0.5 is synergistic)
A. baumannii ATCC 17978 [5]; UTBLP + rifampicin
  Interpretation: Synergy (FICI ≤ 0.5 is synergistic)
A. baumannii ATCC 17978 [5]; plate with chloramphenicol
  MICUTBLP: > 128 µg/mL
A. baumannii ATCC 17978 [5]; plate with niclosamide
  MICUTBLP: > 128 µg/mL
A. baumannii ATCC 17978 [5]; plate with novobiocin
  MICUTBLP: > 128 µg/mL
A. baumannii ATCC 17978 [5]; plate with rifampicin
  MICUTBLP: > 128 µg/mL
A. baumannii ATCC 17978 [5]; [8]
  MICUTBLP [MICcombo]: 16 µg/mL
A. baumannii ATCC 17978 [5]; [10]
  MICUTBLP [MICcombo]: 0.25 µg/mL
A. baumannii ATCC 17978 [5]; [11]
  MICUTBLP [MICcombo]: 8 µg/mL
A. baumannii ATCC 17978 [5]; [12]
  MICUTBLP [MICcombo]: 8 µg/mL
A. baumannii ATCC 17978 [5]; [9]
  MICantibiotic [MICcombo]: 64 µg/mL
A. baumannii ATCC 17978 [5]; [13]
  MICantibiotic [MICcombo]: 1024 µg/mL
A. baumannii ATCC 17978 [5]; [14]
  MICantibiotic [MICcombo]: 1 µg/mL
A. baumannii ATCC 17978 [5]; [15]
  MICantibiotic [MICcombo]: 0.5 µg/mL
A. baumannii 92247; UTBLP + novobiocin
  Interpretation: Synergy (FICI ≤ 0.5 is synergistic)
A. baumannii 92247; UTBLP + rifampicin
  Interpretation: Synergy (FICI ≤ 0.5 is synergistic)
A. baumannii 92247; plate with novobiocin
  MICUTBLP: > 128 µg/mL
A. baumannii 92247; plate with rifampicin
  MICUTBLP: > 128 µg/mL
A. baumannii 92247; [11]
  MICUTBLP [MICcombo]: 8 µg/mL
A. baumannii 92247; [12]
  MICUTBLP [MICcombo]: 16 µg/mL
A. baumannii 92247; [14]
  MICantibiotic [MICcombo]: 1 µg/mL
A. baumannii 92247; [15]
  MICantibiotic [MICcombo]: 0.25 µg/mL
MSSE 81388; UTBLP + chloramphenicol
  Interpretation: Additive (0.5 < x ≤ 4 is additive)
MSSE 81388; [7]
  MICUTBLP: > 128 µg/mL
MSSE 81388; [8]
  MICUTBLP [MICcombo]: 0.25 µg/mL
MSSE 81388; [9]
  MICchloramphenicol [MICcombo]: 8 µg/mL
MRSE 61589; UTBLP + chloramphenicol
  Interpretation: Additive (0.5 < x ≤ 4 is additive)
MRSE 61589; [7]
  MICUTBLP: > 128 µg/mL
MRSE 61589; [8]
  MICUTBLP [MICcombo]: 0.25 µg/mL
MRSE 61589; [9]
  MICchloramphenicol [MICcombo]: 16 µg/mL
E. coli ATCC 25922 [6]
  MIC: >128 µg/mL
